Six compounds from PubChem BioAssay (NCI) can be followed below.

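Compound exposure: 48 hours, 5 concentrations, 96-well plates. At the GI50, growth is halved. At the TGI there is no net growth.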 Some results are limits rather than exact numbers.

Common to all, as to assay: NCI-60 cell line screen, 48 h
Test [1] has as its system RXF 393 renal.
In test [2] the test system is SNB-75 CNS.
For test [3], the system named is HL-60(TB) leukemia.
Test [4] relates to ACHN renal.
In test [5] the test system is SF-295 CNS.
The test system of test [6] is MDA-MB-231 breast.
In test [7] the test system is HT29 colon.
The test system of test [8] is SK-MEL-28 melanoma.
Test [9] relates to SK-MEL-2 melanoma.
Test [10] concerns UACC-62 melanoma.

Consider `CC1(C)N=C(N)N=C(N)N1c1ccc(Cl)c(Cl)c1`, for which the GI50 in test [1] is 29.1 µM; in [2] it was 18.7 µM; in [3] it was 6.27 µM; in test [4], 0.683 µM; in [5], 0.304 µM; in test [6] it was greater than 100 µM. The GI50 in [7] was 0.1 µM; in [8], 11.7 µM; in test [9], greater than 100 µM; in test [10], 0.612 µM. The TGI in test [1] is greater than 100 µM; in test [2], greater than 81.3 µM; in test [3], greater than 100 µM; in test [4], greater than 100 µM; in [6], greater than 100 µM; in test [7], greater than 100 µM. Also, the TGI in test [8], in test [9] and in test [10] was greater than 100 µM each time.
`CC(OC(=O)N(N(CCCl)S(C)(=O)=O)S(C)(=O)=O)c1ccc([N+](=O)[O-])cc1` (centres undefined): the GI50 in test [1] is greater than 100 µM; in [2], greater than 89.1 µM; in test [3] it was 40.1 µM; in test [4] it was greater than 100 µM; in test [5], 34.5 µM; in test [6] it was greater than 51 µM. For the same compound, the GI50 in [7] was 65 µM; in [8], greater than 100 µM; in test [9], greater than 100 µM; in [10] it was 29.6 µM. The TGI in [1] is greater than 100 µM; in test [2], greater than 100 µM; in test [3], greater than 100 µM; in test [4], greater than 100 µM; in [5] it was greater than 100 µM; in [6], 96.8 µM. For the same compound, the TGI in test [7], in test [8], in [9] and in test [10] was greater than 100 µM throughout.
In the case of `COc1ccc2nccc(/C=C/c3ccnc4ccc(OC)cc34)c2c1`, the GI50 in [1] was greater than 73.4 µM; in [2], 27.3 µM; in test [3] it was greater than 50.8 µM; in [4] it was greater than 71 µM; in test [5] it was greater than 64.6 µM; in test [6], greater than 41.5 µM. Further, the GI50 in [7] is greater than 69.9 µM; in test [8], 24.6 µM; in test [9], greater than 53.6 µM; in [10], greater than 77.4 µM. Further, the TGI in [1] was greater than 100 µM; in test [2], greater than 80.2 µM; in test [3] it was greater than 86.5 µM; in test [4], greater than 100 µM; in [5] it was greater than 100 µM; in test [6], greater than 61.6 µM. The TGI in [7] is greater than 100 µM; in test [8] it was 73.8 µM; in [9], greater than 78.4 µM; in test [10], greater than 100 µM.
As for `Oc1c(CNCCNCc2cc(Cl)cc(Cc3ccccc3)c2O)cc(Cl)cc1Cc1ccccc1`, the GI50 was 0.414 µM in test [1]; 1.65 µM in [2]; 0.43 µM in [3]; 0.127 µM in [4]; 0.448 µM in test [5]; 0.73 µM in test [6]. For the same compound, the GI50 in test [7] is 0.668 µM; in test [8], 0.478 µM; in test [9], 1.82 µM; in test [10], 0.436 µM. The TGI in [1] stood at 3.97 µM; in test [2], 50.2 µM; in test [3], 9.84 µM; in test [4], 11.8 µM; in test [5], 4.1 µM; in test [6], 25 µM. Besides, the TGI amounted to 20 µM in [7], 30.7 µM in test [8], 23.9 µM in [9] and 10.9 µM in test [10].
Take `FC(F)(F)c1[nH]ncc1-c1nc2ccc3[nH]ncc3c2c2c1CCCC2`: the GI50 is 1.13 µM in test [1]; 1.1 µM in test [2]; 2.09 µM in test [3]; 1.39 µM in test [4]; 1.69 µM in test [5]; 1.84 µM in [6]. The GI50 is 2.11 µM in test [7], 1.41 µM in [8], 1.64 µM in test [9] and 1.02 µM in [10]. Also, the TGI in test [1] worked out at 2.35 µM; in [2], 2.52 µM; in test [3], 6.22 µM; in test [4] it was 9.62 µM; in test [5], 8.52 µM; in test [6], 6.19 µM. Moreover, the TGI in test [7] turned out to be 6.76 µM; in test [8], 4.86 µM; in [9], 3.61 µM; in [10] it was 2.83 µM.
`CNCCCn1c2c(c3ccc(F)cc3c1=O)C(=O)c1cc(OC)cnc1-2`: the GI50 in test [1] is 0.316 µM; in [2] it was 0.252 µM; in test [3], 0.221 µM; in [4], 0.117 µM; in test [5] it was 0.185 µM; in test [6], 0.7 µM. In addition, the GI50 in [7] was 0.145 µM; in test [8] it was 1.44 µM; in test [9], 1.6 µM; in test [10], 0.608 µM. The TGI in test [1] was determined as 1.38 µM; in test [2], 3.28 µM; in test [3], 0.753 µM; in test [4], 0.362 µM; in test [5] it was 0.78 µM; in test [6], 2.38 µM. Also, the TGI in [7] amounted to 0.624 µM; in [8], 3.94 µM; in [9] it was 7.37 µM; in test [10], 2.68 µM.
